Patent US6649797B2, “Compounds and methods of use to treat infectious diseases” (The Picower Institute for Medical Research, priority 1996, dated 2003)

Key:
[1] = test system: nucleoplasmin-coated gold particles; test: Nuclear import of nucleoplasmin-coated gold particles
[2] = target: T1, recombinant RT (p51/p66 heterodimer) (Human immunodeficiency virus type 1 group M subtype B, UniProt P04585); test: Binding of [14C]-CNI-H0294 to recombinant RT in solution (immunoprecipitation); parameters: species or system HIV-1; settings: 20 nmol [14C]-CNI-H0294 with 0.28 nmol RT
T1 construct: recombinant MA or RT (a p51/p66 heterodimer)
Experimental: Twenty nmol of [^14C]-CNI-HO294 were mixed with 0.28 nmol of recombinant MA or RT (a p51/p66 heterodimer) in 40 μl of binding buffer. Samples were incubated for 2 h at 37° C. in the presence or absence of 200 nmol of unlabeled CNI-H0294. MA and RT proteins were immunoprecipitated using protein G agarose and sheep polyclonal anti-MA (αMA) or rabbit anti-RT (αRT) sera, respectively. Pre-immune sera (PI) was used as control. Bound material was eluted from protein G using 0.1 M glycine buffer [pH 2.8] and the radioactivity in the eluate was quantified in a scintillation counter.
Recombinant RT (0.2 μM) was incubated with 3.3 μM of [^14C ]-labeled CNI-H0294 and increasing concentrations of unlabeled (cold) CNI-3094. The amount of [^14C]-CNI-H0294 that bound to RT was measured as in FIG. 11.
0.28 nanomoles of recombinant MA or RT [p66/p51 ] dimer were mixed with 20 nmol of [^14C] CNI-HO294 (specific activity 5×10^4 cpm/nmol) and incubated 2 hr at room temperature in 40 μl of binding buffer (PBS supplemented with 1% BSA, 0.1% Tween 20, 1 μg/ml leupeptin, 1 μg/ml aprotinin, 1 mM PMSF). Sheep anti-MA or rabbit anti-RT sera (both obtained from NIH AIDS Research and Reference Reagent Program) or pre-immune control sera were then added (at 1:100 dilution) and incubation continued for another 1 hr at room temperature. Immune complexes were precipitated with protein G-agarose, washed, and then eluted with 0.1 M glycine, pH 2.8. Radioactivity of the eluate was measured in a scintillation counter.

HIV-1ADA = test: Nuclear importation of HIV-1 DNA in monocytes (2-LTR circle PCR, Translocation Index); format: cell-based; settings: 100 nM, 48 and 96 hours post infection
Source text: The effects of Compound No. 2 on the nuclear importation of HIV-1 preintegration complexes can be directly measured by detecting the presence of circularized duplex HIV-1 genomic DNA. These duplex circles can be readily detected by PCR amplification using primers which span the junction of the circularized HIV-1 genome. Bukrinsky, M. I., et al., 1992, Proc.Natl.Acad.Sci. 89:6580-84.
Briefly, the efficiency of nuclear translocation was estimated by the ratio between the 2-LTR- and pol-specific PCR products, which reflects the portion of 2-LTR circle DNA molecules as a fraction of the entire pool of intracellular HIV-1 DNA. Viral 2-LTR circle DNA is formed exclusively within the nucleus of infected cells and thus is a convenient marker of successful nuclear translocation. […]
PCR analysis of HIV-1 DNA: Total DNA was extracted from HIV-1-infected cells using the IsoQuick extraction kit (Microprobe Corp., Garden Grove, Calif.). DNA was then analyzed by PCR using primer pairs that amplify the following sequences: a fragment of HIV-1 (LTR/gag) that is the last one to be synthesized during reverse transcription and therefore represents the pool of full-length viral DNA molecules; a fragment of polymerase gene (pol); a 2-LTR junction region found only in HIV-1 2-LTR circle DNA molecules; or a fragment of the cellular a-tubulin gene. […]

Row | Compound | block of nuclear import of nucleoplasmin-coated gold particles [1] | CNI-H0294 immunoprecipitable with RT [2] [nmol] | radioactivity immunoprecipitable with RT ([2]; specific activity 50,000 cpm/nmol) | Translocation Index (HIV-1ADA; relative to drug free control) | inhibition at 0.1 µM (HIV-1ADA; Human immunodeficiency virus 1, Monocyte) [%]
1 | CC(=O)c1cc(Nc2cc(C)[n+](C)c(N)n2)cc(C(C)=O)c1 [CNI-0294, 2-Amino-4-(3,5-diacetylphenyl)amino-1,6-dimethylpyrimidinium chloride] | did not block | ~0.34 | about 17,000 cpm |  | 
2 | CC(=O)c1cc(Nc2cc(C)[n+](C)c(N)n2)cc(C(C)=O)c1.[I-] [Compound No. 2, 2-amino-4-(3,5-diacetylphenyl)amino-1,6-dimethylpyrimidinium iodide] |  |  |  | less than 10 | > 90
